Results on one compound are retold here after patent US10478406B2, “High-pH solid-state epinephrine formulation” (HARC Therapeutics AG, priority 2019, dated 2019).

The nature of the data set: Suspension assay testing: epinephrine dissolved in suspension. Format: physicochemical. The text has this: Sample numbers /1 and /2 were not acidic. To confirm that these samples produced solid state epinephrine rather than dissolved epinephrine, I had these samples assayed to determine whether the epinephrine had in fact dissolved into solution and if so, by what amount.
Sample numbers /3 and /4 were basic pH. I thus had these samples assayed to determine whether the epinephrine dissolved into solution and if so, by what amount.

In the case of `CNC[C@H](O)c1ccc(O)c(O)c1` [Epinephrine, 4-[(1 R)-1-Hydroxy-2-(methylamino)ethyl]-1,2-benzenediol], the “total epinephrine that dissolves in water” value reads like this: (basic pH 8.5) “about 0.1%”; (pH 7, without added acid) “about 0.45%”.
